# Like-named read-outs stand apart in the source and are kept apart here.
# Key:
# HEK293 = conditions: human, 48 h, 100 µM
# MMP-3 = biological target: T1, MMP-3 (Homo sapiens, UniProt P08254); test: MMP-3 inhibition assay; assay type: biochemical; conditions: 100 μM; read-out: % inhibition MMP-3
# T1 construct: purchased AnaSpec (Fremont, CA, USA)
# Calu-3 permeability = assay type: in vitro ADME; conditions: human
# MMP-1 = biological target: T2, MMP-1 (Homo sapiens, UniProt P03956); test: MMP-1 inhibition assay; assay type: biochemical; conditions: 100 μM; read-out: % inhibition MMP-1
# T2 construct: purchased AnaSpec (Fremont, CA, USA)
# T2 sequence (P03956 100-469): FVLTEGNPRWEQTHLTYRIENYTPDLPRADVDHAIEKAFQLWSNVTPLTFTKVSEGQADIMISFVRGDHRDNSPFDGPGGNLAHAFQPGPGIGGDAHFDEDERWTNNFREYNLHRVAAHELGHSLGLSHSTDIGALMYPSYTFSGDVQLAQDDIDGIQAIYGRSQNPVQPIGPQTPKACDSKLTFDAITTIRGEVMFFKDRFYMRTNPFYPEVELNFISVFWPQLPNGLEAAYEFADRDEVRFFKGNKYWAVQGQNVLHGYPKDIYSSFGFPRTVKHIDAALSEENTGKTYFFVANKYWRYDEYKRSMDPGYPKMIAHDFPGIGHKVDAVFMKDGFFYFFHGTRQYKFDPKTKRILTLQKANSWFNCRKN
# [1] = mouse, in vivo
# Plasma stability, mouse = assay type: in vitro ADME; conditions: for half-life at 1 μM: mouse plasma, read-out: Plasma T1/2 Mouse
# HepG2 = conditions: human, 48 h, 100 µM
# Procedure: Culturing of HepG2, A549 and HEK293 cells. The human hepatocellular carcinoma cell line HepG2, the lung adenocarcinoma cell line A549 and Human Embryonic (HEK) 293 cells were cultured in Dulbecco's Modified Eagle Medium (DMEM), containing 10% Fetal Bovine Serum
# (FBS) and 1% penicillin-streptomycin mixture. Cells were maintained according to standard cell
# Cytotoxicity assay. An MTT-based assay was employed to evaluate the viability of HepG2,
# HEK293 and A549 cells after challenge with selected LasB inhibitors and performed as described
# [2] = Metabolic stability in mouse liver S9 fraction; assay type: in vitro ADME
# [3] = Metabolic stability in human liver S9 fraction; assay type: in vitro ADME
# HDAC-8 = biological target: T3, HDAC-8 (Homo sapiens, UniProt Q9BY41); test: HDAC-8 inhibitor screening kit; assay type: biochemical
# T3 construct: purchased Sigma-Aldrich (Saint Louis, MO)
# T3 sequence (Q9BY41 1-377): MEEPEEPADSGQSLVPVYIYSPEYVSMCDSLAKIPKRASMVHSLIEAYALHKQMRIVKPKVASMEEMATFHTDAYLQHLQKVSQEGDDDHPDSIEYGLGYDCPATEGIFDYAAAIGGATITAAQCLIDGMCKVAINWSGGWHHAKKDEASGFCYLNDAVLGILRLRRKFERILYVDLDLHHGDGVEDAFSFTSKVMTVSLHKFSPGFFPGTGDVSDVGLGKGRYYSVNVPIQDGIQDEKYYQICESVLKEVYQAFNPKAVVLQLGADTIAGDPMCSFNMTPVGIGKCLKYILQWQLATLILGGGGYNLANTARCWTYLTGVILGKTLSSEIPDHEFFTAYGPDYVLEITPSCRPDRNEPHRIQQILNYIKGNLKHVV
# COX-1 = biological target: T4, COX-1 (Ovis aries, UniProt P05979); test: Fluorometric COX-1 inhibitor assay; assay type: biochemical, human
# T4 construct: purchased Abcam (Cambridge, UK)
# T4 sequence (P05979 25-600): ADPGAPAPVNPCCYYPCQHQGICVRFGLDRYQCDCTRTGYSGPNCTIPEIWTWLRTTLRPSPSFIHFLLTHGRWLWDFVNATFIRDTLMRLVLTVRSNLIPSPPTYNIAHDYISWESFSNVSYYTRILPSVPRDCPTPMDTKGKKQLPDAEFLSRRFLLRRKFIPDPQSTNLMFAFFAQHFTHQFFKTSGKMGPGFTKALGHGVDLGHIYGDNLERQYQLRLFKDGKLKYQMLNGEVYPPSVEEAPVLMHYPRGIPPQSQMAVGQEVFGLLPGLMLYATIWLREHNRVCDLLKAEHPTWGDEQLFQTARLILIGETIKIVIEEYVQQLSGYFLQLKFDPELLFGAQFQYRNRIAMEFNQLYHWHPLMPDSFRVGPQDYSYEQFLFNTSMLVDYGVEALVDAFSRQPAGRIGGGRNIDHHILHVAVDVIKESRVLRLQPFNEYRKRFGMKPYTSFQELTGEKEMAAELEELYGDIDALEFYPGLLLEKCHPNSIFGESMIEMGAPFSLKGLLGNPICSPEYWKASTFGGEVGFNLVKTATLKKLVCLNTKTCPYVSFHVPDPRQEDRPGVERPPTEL
# MMP-2 = biological target: T5, MMP-2 (Homo sapiens, UniProt P08253); test: MMP-2 inhibition assay; assay type: biochemical; conditions: 100 μM; read-out: % inhibition MMP-2
# T5 construct: purchased AnaSpec (Fremont, CA, USA)
# T5 sequence (P08253 110-660): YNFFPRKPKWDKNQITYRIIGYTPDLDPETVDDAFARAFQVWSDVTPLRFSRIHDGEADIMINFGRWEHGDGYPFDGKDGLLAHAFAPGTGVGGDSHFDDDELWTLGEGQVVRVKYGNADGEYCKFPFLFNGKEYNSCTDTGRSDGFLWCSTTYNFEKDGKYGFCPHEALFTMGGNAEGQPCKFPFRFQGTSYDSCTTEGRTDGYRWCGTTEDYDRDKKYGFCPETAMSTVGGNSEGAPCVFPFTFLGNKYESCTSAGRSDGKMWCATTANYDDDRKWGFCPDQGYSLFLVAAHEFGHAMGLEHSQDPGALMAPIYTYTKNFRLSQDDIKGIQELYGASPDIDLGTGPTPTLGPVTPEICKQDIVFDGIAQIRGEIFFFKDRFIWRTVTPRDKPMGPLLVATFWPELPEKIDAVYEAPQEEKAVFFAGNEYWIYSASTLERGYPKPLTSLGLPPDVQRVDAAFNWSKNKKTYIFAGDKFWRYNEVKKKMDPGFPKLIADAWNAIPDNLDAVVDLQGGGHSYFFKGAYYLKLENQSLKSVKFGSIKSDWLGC
# HDAC-3 = biological target: T6, HDAC-3 (Homo sapiens, UniProt O15379); test: HDAC-3 inhibitor screening kit; assay type: biochemical
# T6 construct: purchased Sigma-Aldrich (Saint Louis, MO)
# T6 sequence (O15379 whole entry): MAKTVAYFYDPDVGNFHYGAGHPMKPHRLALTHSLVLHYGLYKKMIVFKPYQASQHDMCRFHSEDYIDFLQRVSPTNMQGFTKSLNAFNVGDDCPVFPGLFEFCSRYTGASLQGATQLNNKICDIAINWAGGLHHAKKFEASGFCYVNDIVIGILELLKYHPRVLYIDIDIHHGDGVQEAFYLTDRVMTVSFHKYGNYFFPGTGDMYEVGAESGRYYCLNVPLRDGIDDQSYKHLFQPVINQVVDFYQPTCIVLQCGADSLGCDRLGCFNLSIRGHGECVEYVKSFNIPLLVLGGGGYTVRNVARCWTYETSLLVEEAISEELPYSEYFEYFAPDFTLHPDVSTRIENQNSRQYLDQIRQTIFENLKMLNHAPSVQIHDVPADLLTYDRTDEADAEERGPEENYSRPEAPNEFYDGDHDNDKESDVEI
# T6 sequence (Q9Y618 395-489 partner limits assumed): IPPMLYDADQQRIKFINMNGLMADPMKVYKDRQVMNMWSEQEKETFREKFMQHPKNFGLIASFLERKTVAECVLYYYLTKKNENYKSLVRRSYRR
# LasB [4] = biological target: T7, LasB (Pseudomonas aeruginosa, UniProt Q02RJ6); test: biochemical; assay type: biochemical
# T7 construct: made in house
# T7 sequence (Q02RJ6 198-498): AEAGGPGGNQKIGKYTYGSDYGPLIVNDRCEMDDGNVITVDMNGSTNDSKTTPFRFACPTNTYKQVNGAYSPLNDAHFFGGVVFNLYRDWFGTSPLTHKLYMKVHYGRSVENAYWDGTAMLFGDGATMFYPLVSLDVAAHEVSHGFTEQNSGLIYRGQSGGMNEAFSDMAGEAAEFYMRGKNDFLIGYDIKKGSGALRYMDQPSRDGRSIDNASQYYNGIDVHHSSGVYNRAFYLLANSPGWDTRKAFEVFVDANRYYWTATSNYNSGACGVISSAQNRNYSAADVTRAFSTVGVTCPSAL
# [5] = Lipophilicity determination (LogD7.4, HPLC-MS); assay type: physicochemical
# Procedure: Lipophilicity determination. LogD7.4 was analyzed using an HPLC−MS based method.50 The retention time of 12 compounds with known LogD7.4 was determined and plotted toward their LogD7.4. Linear regression was used to determine the LogD7.4 of unknown compounds. Analysis was performed using a Dionex Ultimate 3000 HPLC system coupled to a TSQ Quantum Access MAX (Thermo Fisher, Dreieich, Germany) with the following conditions: EC150/2 NUCLEODUR C18 Pyramid column, 5 μM (Macherey Nagel, Düren, Germany); eluent A: 50 mM NH4OAc pH 7.4, eluent B: acetonitrile, and flow: 0.6 mL/min.
# [6] = Plasma stability, minipig; assay type: in vitro ADME; conditions: Göttingen, pooled plasma, species profiling, read-out: Plasma T1/2 Minipig (Göttingen)
# [7] = system: Eurofins SafetyScreen44 panel; test: Off-target SafetyScreen44 panel; conditions: 10 μM
# Excerpt: Then, we assessed potential additional safety liabilities of 4a and 4b using the Eurofins SafetyScreen44 panel to identify the most important off-target interactions at an early stage. […] Furthermore, to gain a deeper insight into the potential clinical applicability, we investigated the toxicity of compounds in vivo on zebrafish embryos.
# Off-Target Safety Screen44TM Panel.
# Eurofins Cerep, according to their guidelines.
# their Standard Operating Procedures.
# Zebrafish embryo toxicity.
# [8] = Microsomal stability, rat liver microsomes; assay type: in vitro ADME; conditions: Wistar, pooled liver microsomes
# [9] = Microsomal stability, minipig liver microsomes; assay type: in vitro ADME; conditions: Göttingen, pooled liver microsomes
# 3D lung organoids = test: Lung organoid assay; assay type: cell-based, human
# TACE = biological target: T8, TACE (Homo sapiens, UniProt P78536); test: TACE inhibitor screening kit; assay type: biochemical; conditions: 100 μM; read-out: % inhibition TACE
# T8 construct: purchased Sigma-Aldrich (Saint Louis, MO)
# T8 sequence (P78536 215-824): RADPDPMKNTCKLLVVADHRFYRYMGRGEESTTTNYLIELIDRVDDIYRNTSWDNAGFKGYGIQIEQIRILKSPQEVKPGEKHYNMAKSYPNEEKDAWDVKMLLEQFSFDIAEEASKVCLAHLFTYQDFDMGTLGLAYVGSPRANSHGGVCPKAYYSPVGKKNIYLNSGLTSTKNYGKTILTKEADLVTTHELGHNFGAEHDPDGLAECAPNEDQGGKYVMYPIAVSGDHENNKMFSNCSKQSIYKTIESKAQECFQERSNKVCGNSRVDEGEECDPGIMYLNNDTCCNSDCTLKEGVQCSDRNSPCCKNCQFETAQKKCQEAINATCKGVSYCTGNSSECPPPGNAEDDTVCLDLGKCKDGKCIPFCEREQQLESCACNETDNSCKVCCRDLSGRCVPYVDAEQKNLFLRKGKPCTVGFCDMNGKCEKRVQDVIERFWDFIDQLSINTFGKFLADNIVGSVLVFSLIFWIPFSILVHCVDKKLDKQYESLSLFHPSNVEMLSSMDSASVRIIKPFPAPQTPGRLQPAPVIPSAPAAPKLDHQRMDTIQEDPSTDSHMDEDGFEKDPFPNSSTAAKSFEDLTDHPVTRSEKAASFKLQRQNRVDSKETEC
# [10] = Microsomal stability, mouse liver microsomes; assay type: in vitro ADME; conditions: C57BL6, mouse, pooled liver microsomes
# zebrafish embryos = test: Zebrafish embryo toxicity
# Procedure: Zebrafish embryo toxicity. The experiment was performed according to a procedure described
# in the literature55 with minor modifications using zebrafish embryos of the AB wild-type line at 1
# day post fertilization (dpf).
# Plasma stability, rat = assay type: in vitro ADME; conditions: Wistar, pooled plasma, species profiling, read-out: Plasma T1/2 Rat (Wistar)
# ColH-PD = ColH-PD (Hathewaya histolytica, UniProt Q46085); test: biochemical; assay type: biochemical, Clostridium histolyticum; conditions: read-out: % inhibition ColH-PD @1 µM
# Sequence of ColH-PD (Q46085 331-721 limits assumed): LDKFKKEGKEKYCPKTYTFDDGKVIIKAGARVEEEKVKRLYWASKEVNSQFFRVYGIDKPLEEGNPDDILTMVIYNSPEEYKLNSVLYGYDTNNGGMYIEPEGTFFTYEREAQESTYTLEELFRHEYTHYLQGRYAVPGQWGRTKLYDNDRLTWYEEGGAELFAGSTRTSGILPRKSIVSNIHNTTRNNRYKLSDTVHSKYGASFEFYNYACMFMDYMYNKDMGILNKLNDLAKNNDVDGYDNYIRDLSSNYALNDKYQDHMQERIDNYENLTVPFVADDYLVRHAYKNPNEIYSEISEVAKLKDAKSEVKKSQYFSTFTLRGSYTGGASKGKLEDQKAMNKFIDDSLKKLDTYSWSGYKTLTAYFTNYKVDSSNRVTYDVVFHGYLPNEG
# [11] = system: A549 cells treated with P. aeruginosa PAO1 and PA14 supernatants; test: A549 cells challenged with P. aeruginosa culture supernatants; conditions: PAO1 or PA14 csn
# Procedure: Cells were maintained according to standard cell
# PA14 csn production. The csn of wt PA14 and ΔlasB PA14 was produced as we previously
# Validation of the effect of LasB inhibitors on A549 cells in vitro. The experiment was performed
# as described previously.32 The Picrosirius red assay was performed by washing the csn-challenged
# cells (± inhibitor) 3x with PBS followed by an incubation with Bouin solution (Sigma) at RT for
# 20 min. The cells were incubated with 0.1% Picrosirius red dye (ab150681) at RT for 2 h. Then,
# they were washed once with 0.01 N HCl, and the matrix was dissolved in 0.01 N NaOH. The
# absorption was measured at 570 nm using a PHERAstar plate reader (BMG Labtech). By dividing
# the absorbance of each sample by the absorbance of the healthy sample, the relative collagen
# quantity was determined. For each condition, the experiment was performed three times. To
# determine the rescue of A549 cells treated with 5% wt PA14 csn using our compounds, the LasB
# inhibitors were used at 2, 0.5, 0.1 and 0.05 µM. The compounds were incubated in F12K medium,
# Cell detachment was then evaluated, and a Trypan Blue cell
# cells/well were seeded into a flat bottom 96-well plate (Corning™ Costar™) and incubated at 37
# were tested against 10% (v/v) P. aeruginosa PAO1 csn diluted in DMEM starting from 10 µM
# and 20 µM, respectively. Compound was initially dissolved in DMSO, and a low final assay
# concentration of 0.5% (v/v) was applied to minimize the proteolytic effect of DMSO on the
# bacterial culture supernatant. In addition, cells were challenged with 10% (v/v) of ΔlasB PAO1 to
# P. aeruginosa PA14 = test: Bacterial growth inhibition assay; assay type: cell-based, Pseudomonas aeruginosa; conditions: Pseudomonas aeruginosa, PA14; 100 µM compound concentration; read-out: Percent (%) growth inhibition of P. aeruginosa PA14
# Procedure: Bacterial growth inhibition assay. Assays regarding the determination of the MIC were
# performed as described recently for P. aeruginosa PA14.58
# LasB [12] = assay type: in vivo, mouse; conditions: compared to the vehicle group; 4b 10 mg/kg TID, levofloxacin 25 mg/kg
# P. aeruginosa DSM-1117 = test: Neutropenic lung infection model (PD study); conditions: neutropenic mice, 24 h; 4b 10 mg/kg TID nebulized, levofloxacin 25 mg/kg IP
# Procedure: For the therapeutic neutropenic
# pneumonia model, female CD-1 mice, 8-weeks-old, (Charles River, Germany) were rendered
# neutropenic by administration of 150 mg/kg and 100 mg/kg cyclophosphamide i.p. on day –4 and
# –1, respectively. The inoculum was prepared as follows: on day -1 the P. aeruginosa strain DSM-
# single colony was inoculated into LB medium (diluted 1:6 in water) containing 0.01% mucin and
# incubated at 120 rpm and 37 °C.
# washed twice in 0.9 % NaCl-solution. Then they were adjusted to an OD of 10. For infection with
# P. aeruginosa an inoculum of 1.2x10^9 cfu/mL was used. At d0 mice were infected by nebulization
# using an Aeroneb® nebulizer (Kent Scientific) of 20 µL 1.2x10^9 CFU/ml P. aeruginosa DSM-
# To control bacterial burden after nebulization, two animals were used as inoculum control
# group. The following groups were used: (1) vehicle control group, (2) levofloxacin group wit h
# mg/kg inhaled TID (t= 2, 6 and 10 h) combined with levofloxacin at 25 mg/kg IP QD (t= 2 h p.i.).
# After isolation of blood, lung was
# removed, weighed, and homogenized in 3 mL 0.9% NaCl. For de termination of CFUs, suspensions
# of homogenized organs were serially diluted, plated on agar plates and incubated overnight at 37
# °C. CFUs were determined by manual counting.
# T1 sequence (P08254 100-477): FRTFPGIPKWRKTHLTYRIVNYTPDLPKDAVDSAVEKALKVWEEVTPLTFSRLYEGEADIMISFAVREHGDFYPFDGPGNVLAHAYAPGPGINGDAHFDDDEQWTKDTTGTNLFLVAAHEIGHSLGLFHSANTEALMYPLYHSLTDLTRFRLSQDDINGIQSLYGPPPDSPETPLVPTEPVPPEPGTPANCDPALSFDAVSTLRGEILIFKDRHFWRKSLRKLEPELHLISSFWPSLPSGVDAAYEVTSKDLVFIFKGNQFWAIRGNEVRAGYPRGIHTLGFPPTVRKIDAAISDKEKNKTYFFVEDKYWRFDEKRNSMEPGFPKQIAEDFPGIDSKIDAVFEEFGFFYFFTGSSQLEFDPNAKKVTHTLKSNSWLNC
compound,measurement,setting,value
Cc1ccc(NC(=O)C(CC(C)C)C(=O)NO)cc1 (stereo not shown) [Compound 3g],% growth inhibition HEK293,HEK293,12 ± 6%
same,inhibition at 100 µM,MMP-3,16 ± 7%
same,Papp at 300 min,Calu-3 permeability,9.8 ± 2.6 ×10⁻⁶ cm/s
same,inhibition at 100 µM,MMP-1,29 ± 3%
same,detection in ELF and lung tissue,[1],not detected
same,half-life at 1 μM,"Plasma stability, mouse",> 150 min
same,% growth inhibition HepG2,HepG2,26 ± 11%
same,microsomal CLint at 1 μM,[2],64 ± 10 µL/min/mg
same,microsomal CLint at 1 μM,[3],< 5.8 µL/min/mg
same,inhibition at 100 µM,HDAC-8,< 10%
same,inhibition at 100 µM,COX-1,< 10%
same,inhibition at 100 µM,MMP-2,26 ± 2%
same,inhibition at 100 µM,HDAC-3,< 10%
same,fold more potent compared to the best phosphonate inhibitor,LasB [4],2 fold
same,fold improvement of LasB activity compared to thiol hit 1,LasB [4]; vs 1,30 fold
same,logD7.4,"[5]; pH 7.4, chromatographic",1.81
same,chromatographic logD,"[5]; pH 7.4, pH 7.4, chromatographic",> 1.8
Cc1ccc(NC(=O)C(CC(C)C)P(=O)(O)O)cc1 (stereo not shown) [Compound 4a],half-life,[6],> 240 min
same,inhibition of SafetyScreen44 targets,[7],no significant inhibition
same,microsomal CLint,[8],< 11.6 µL/min/mg
same,half-life,"Plasma stability, mouse; C57BL6, mouse, pooled plasma, species profiling, read-out: Plasma T1/2 Mouse (C57BL6)",> 240 min
same,half-life at 1 μM,"Plasma stability, mouse",> 150 min
same,microsomal CLint at 1 μM,[2],< 5.8 µL/min/mg
same,microsomal CLint,[9],< 11.6 µL/min/mg
same,viability of lung organoids challenged with 5% PA14 csn,"3D lung organoids; 5% PA14 csn, 48 h, MTT",improved in a dose-dependent manner
same,toxic effects on nontreated lung organoids,3D lung organoids; concentrations tested up to 100 μM,did not have significant toxic effects
same,inhibition at 100 µM,TACE,< 10%
same,microsomal CLint at 1 μM,[3],< 5.8 µL/min/mg
same,microsomal CLint,[10],< 11.6 µL/min/mg
same,Survival rate,zebrafish embryos; 12.5 µM,100%
same,Screening observations,"zebrafish embryos; 12.5 µM, 3 dpf",1 edema
same,Screening observations,"zebrafish embryos; 12.5 µM, 4 dpf",1 edema
same,Screening observations,"zebrafish embryos; 12.5 µM, 5 dpf","1 nsb, 1 edema"
same,Survival rate,zebrafish embryos; 25 µM,100%
same,Survival rate,zebrafish embryos; 50 µM,100%
same,Screening observations,"zebrafish embryos; 50 µM, 3 dpf",1 edema
same,Screening observations,"zebrafish embryos; 50 µM, 4 dpf",1 edema
same,Screening observations,"zebrafish embryos; 50 µM, 5 dpf","1 nsb, 1 edema"
same,Survival rate,zebrafish embryos; 100 μM,100%
same,Screening observations,"zebrafish embryos; 100 µM, 5 dpf",3 nsb
same,maximum tolerated concentration (MTC),zebrafish embryos; zebrafish embryos,≥ 100 µM
same,inhibition at 100 µM,HDAC-8,< 10%
same,half-life,"Plasma stability, rat",> 240 min
same,inhibition at 1 µM,ColH-PD,< 10%
same,inhibition at 100 µM,COX-1,< 10%
same,LasB-related cytotoxicity in csn-treated A549 cells,[11],dose-dependent reduction of LasB-related cytotoxicity
same,inhibition at 100 µM,HDAC-3,< 10%
same,IC50,"LasB [4]; FRET-based assay, read-out: LasB IC50",51.2 ± 6.7 nM
same,IC50,"LasB [4]; LasB IC50 in presence of 1% pulmonary surfactant, 1% pulmonary surfactant",123 ± 56 nM
same,inhibition at 100 µM,P. aeruginosa PA14,< 10%
"C[C@H]1COc2c(N3CCN(C)CC3)c(F)cc3c(=O)c(C(=O)O)cn1c23 [levofloxacin, reference compound]",LasB protein levels in blood,LasB [12],clear reduction
same,effect on bacterial burden (CFU) in lung,P. aeruginosa DSM-1117,reduced the bacterial burden back to stasis

# From article PMC10755728, “Inhibitors of the Elastase LasB for the Treatment of Pseudomonas aeruginosa Lung Infections” (ACS Central Science, 2023)
